Laboratory results published in paper PMC3706879, “The neurotrophic compound J147 reverses cognitive impairment in aged Alzheimer's disease mice” (Alzheimer's Research & Therapy, 2013).
Where “and” joins values, the source holds several entries; their conditions need not be identical. Equal values may be shown once.

Experiments:
CYP450 3A4 = CYP450 3A4 (Homo sapiens, UniProt P08684)
[1] = body weights and food consumption of aged APPswe/PS1ΔE9 mice; format: in vivo; conditions: 20-month-old APPswe/PS1ΔE9 mice, 200 ppm (10 mg/kg/day) in food, three months, measured weekly
Procedure: The APPswe/PS1ΔE9 transgenic mice have been previously characterized. The line 85 mice carry two transgenes, the mouse/human chimeric APP/Swe, linked to Swedish FAD and human PS1ΔE9. At 20 months of age both male and female transgenic mice were fed a high fat diet (Harlan Tekland, Madison, WI, USA) with and without J147 (200 ppm, 10 mg/kg/day). Treatment continued for three months and was followed by behavior testing and sacrifice of mice for tissue harvesting. […] (Data not shown).

HT22 cells = conditions: 10 μM J147, one hour
Procedure: HT22 cells were plated in DMEM plus 10% FCS. The next day, the cells were treated with 10 μM J147 for 1 hr before RNA isolation.
RNA was isolated with the use of RNeasy Mini kit (Qiagen, #74104; Valencia, CA, USA) according to the manufacturer's instructions. Total RNA was quantified using the ND-1000 Nanodrop and assessed for quality using the ratios: A260/280 (range: 1.9 to 2.1) and A260/230 (range: 2.0 to 2.2, if <2.0, contamination), in addition to the Bioanalyzer (Agilent Technologies, Cedar Creek, TX, USA) if further quality assessment was required.
After RNA isolation for each sample, double stranded cDNA was synthesized from 500 ng total RNA and biotin-labeled using the GeneChip 3' IVT Express Kit (Affymetrix, Santa Clara, CA, USA, #901228-A) per the manufacturer's instructions and protocol. RNA was purified, quantified, fragmented randomly to an average size of 50 to 200 bases and hybridized to GeneChip® Mouse Genome 430 2.0 Arrays (Affymetrix,) consisting of over 45,000 probe sets representing more than 34,000 named mouse genes. The hybridization and processing of the GeneChips were conducted by Salk Institute's Functional Genomics Core Facility using the following systems from Affymetrix (Santa Clara, CA, USA): GeneChip® Hybridization Oven 640, GeneChip® Fluidics Station 450 to the wash and stain operation of Affymetrix GeneChip® arrays, and the GeneChip® Scanner 3000 7G.
Affymetrix Expression Console Software (version 1.0) was used to perform quality assessment of the microarray scan/experiments. Array data were normalized via scaling to adjust the average intensity of each array to be similar. GeneChips were analyzed by the GeneChip Operating Software (Affymetrix) with the default settings except that the target signal was set to 200 for GeneChip quality control. Raw data were analyzed through the gcRMA-algorithm using the Affymetrix package in R software for statistical computing and graphics. The median microarray intensity for all microarrays was normalized to 100, and probe sets with median intensities >100 were scored. Fold changes were calculated in Microsoft Excel Microsoft, Redmond, Washington, USA). Genes of interest and genes with the highest fold-changes were validated using Real-Time Quantitative PCR. The data discussed in this publication have been deposited in NCBI's Gene Expression Omnibus and are accessible through GEO Series accession number GSE45534 [26].

C57BL/6J mice = assay: two-day water maze, scopolamine induced memory impairment; format: in vivo; conditions: scopolamine 1 mg/kg i.p.; J147 200 ppm, donepezil 20 ppm in food for two weeks
Procedure: A total of 60 male mice aged eight weeks were housed 4 per cage and were divided into five groups with 12 mice per group. Treatments were administered in the food (TestDiet® 5015, Richmond, IN, USA) for a period of two weeks before commencement of behavioral testing. […] Following two weeks of treatment, memory impairment was induced by intraperitoneal (i.p.) injection of scopolamine (1 mg/kg) 30 minutes prior to each of the following behavioral tests: Y-maze, probe trial of the water maze and contextual and cued fear conditioning. Mice were allowed to rest for two days between each behavior test. All mice received scopolamine except for one of the control groups, which received saline as a control. Mice were sacrificed 24 hours after the last behavioral test for tissue harvesting.
Spatial memory was determined using the two-day water maze in 23-month-old huAPPswe/PS1 transgenic mice fed J147 at 200 ppm in food for the previous three months. The protocol was adapted from a publication by Gulinello and colleagues. Water temperature remained at 27°C throughout the experiment. […] The time it took each mouse to find the hidden platform was measured as escape latency. […] All trials were recorded using the EthoVision Software and statistics were computed using GraphPad Instat software (GraphPad Software, San Diego, CA, USA).

Aβ plaques = assay: immunohistochemistry (6E10) of amyloid plaques in hippocampus of aged huAPP/PS1 mice; format: in vivo
Procedure: Brains were fixed with 4% paraformaldehyde in 100 mM sodium tetraborate, pH 9.5, for 3 h, cryoprotected with 20% sucrose-potassium-PBS (KPBS), and sectioned into coronal (30 μm) sections using a sliding microtome (Leica Microsystems Inc, Buffalo Grove, IL, USA). Sections were submerged in 0.3% H2O2 for 10 minutes to eliminate endogenous peroxidase activity and treated with 1% borate to eliminate free paraformaldehyde. Sections were incubated with primary antibody in 0.3% Triton X-100 in KPBS plus 2% filtered serum or BSA overnight at 4°C, and with […] (1:1,000) in 0.3% Triton X-100 for 1 hr at room temperature. After incubation with secondary antibody and ABC reagent (Vector Laboratories Inc, Burlingame, CA, USA), sections were developed using metal-enhanced DAB solution. Sections were mounted to slides, dried, dehydrolyzed, treated with xylene, and covered using permount (Fisher Scientific, Pittsburgh, Pennsylvania, USA). […]
Quantification of amyloid plaque burden was based on the image captured by immunohistochemical staining with antibody 6E10. Sections of each mouse cortex and hippocampus were imaged together and the areas and densities of the plaques in the hippocampus only were measured by the Image J software (NIH). The total counts of Aβ plaques in sections per six mouse brains of each group were determined in an unbiased fashion.

mice = conditions: mouse, in vivo

CYP450 3A4, sequence (P08684 whole entry): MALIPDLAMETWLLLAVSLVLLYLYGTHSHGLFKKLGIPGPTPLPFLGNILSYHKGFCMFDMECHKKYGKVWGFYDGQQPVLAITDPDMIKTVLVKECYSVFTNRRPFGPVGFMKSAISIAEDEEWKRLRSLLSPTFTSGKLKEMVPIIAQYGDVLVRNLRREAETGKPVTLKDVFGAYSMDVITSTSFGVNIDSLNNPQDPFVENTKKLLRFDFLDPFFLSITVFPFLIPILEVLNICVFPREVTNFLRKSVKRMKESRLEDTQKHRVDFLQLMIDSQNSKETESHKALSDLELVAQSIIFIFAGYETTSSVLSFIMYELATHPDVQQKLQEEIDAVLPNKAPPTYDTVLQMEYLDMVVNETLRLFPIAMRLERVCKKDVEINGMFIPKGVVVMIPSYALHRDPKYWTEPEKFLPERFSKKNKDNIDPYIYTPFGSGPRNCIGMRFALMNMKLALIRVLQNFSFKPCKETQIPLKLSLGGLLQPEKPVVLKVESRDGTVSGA

COc1cccc(/C=N/N(C(=O)C(F)(F)F)c2ccc(C)cc2C)c1 [J147, (E)-N-(2,4-dimethylphenyl)-2,2,2-trifluoro-N'-(3methoxybenzyli-dene) acetohydrazide]
CYP450 3A4 assays (CYP450 inhibition) (CYP450 3A4): negative | mouse body weights and food consumption [1]: no significant differences between the groups | Fold change: J147 (1 hr) vs Control, Egr1 mRNA (HT22 cells): 2.5 fold | Fold change: J147 (1 hr) vs Control, Egr3 mRNA (HT22 cells): 8 fold and 8.0 fold | Fold change: J147 (1 hr) vs Control, Ngf mRNA (HT22 cells): 2.8 fold | Fold change: J147 (1 hr) vs Control, No title (chr8:13161324 to 13161817) (HT22 cells): 2.6 fold | Fold change: J147 (1 hr) vs Control, Spred2 mRNA (HT22 cells): 2.7 fold | spatial memory (time to find hidden platform) (C57BL/6J mice): rescued this deficit in spatial memory | plaque number and size (Aβ plaques): no difference in either plaque number or size | addiction (mice): no addiction
